Calls of active or inactive are those of the source.
How the values were obtained:
Vero = assay: cells; type: functional; details: Chlorocebus sabaeus
[1] = biological target: T1, Alkaline phosphatase, tissue-nonspecific isozyme (Homo sapiens, UniProt P05186); assay: TNAP enzyme inhibition by screening hits, dose response, selectivity assay for mouse IAP inhibitor project, biochemical, human TNAP, uHTS hits (AID 488906); type: functional
T1 sequence (P05186 whole entry): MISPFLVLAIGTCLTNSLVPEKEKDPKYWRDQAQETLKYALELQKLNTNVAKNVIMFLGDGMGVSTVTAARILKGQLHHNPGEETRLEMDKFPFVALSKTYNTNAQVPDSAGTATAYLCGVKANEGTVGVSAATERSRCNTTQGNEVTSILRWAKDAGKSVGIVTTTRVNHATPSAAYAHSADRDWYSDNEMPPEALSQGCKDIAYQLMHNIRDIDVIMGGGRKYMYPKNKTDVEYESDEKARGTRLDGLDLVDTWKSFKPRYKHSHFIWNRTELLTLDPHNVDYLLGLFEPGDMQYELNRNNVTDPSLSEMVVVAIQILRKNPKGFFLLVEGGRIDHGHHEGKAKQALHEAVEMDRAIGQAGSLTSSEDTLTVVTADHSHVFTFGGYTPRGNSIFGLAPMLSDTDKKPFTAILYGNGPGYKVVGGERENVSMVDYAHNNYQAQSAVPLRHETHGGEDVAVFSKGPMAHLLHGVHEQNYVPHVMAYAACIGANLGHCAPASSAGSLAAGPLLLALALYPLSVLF

[2] = biological target: Intestinal-type alkaline phosphatase (Homo sapiens, UniProt P09923); assay: activation of human intestinal alkaline phosphatase – biochemical, dose response (AID 488873); type: functional
Sequence of Intestinal-type alkaline phosphatase (Homo sapiens, UniProt P09923) (P09923 whole entry): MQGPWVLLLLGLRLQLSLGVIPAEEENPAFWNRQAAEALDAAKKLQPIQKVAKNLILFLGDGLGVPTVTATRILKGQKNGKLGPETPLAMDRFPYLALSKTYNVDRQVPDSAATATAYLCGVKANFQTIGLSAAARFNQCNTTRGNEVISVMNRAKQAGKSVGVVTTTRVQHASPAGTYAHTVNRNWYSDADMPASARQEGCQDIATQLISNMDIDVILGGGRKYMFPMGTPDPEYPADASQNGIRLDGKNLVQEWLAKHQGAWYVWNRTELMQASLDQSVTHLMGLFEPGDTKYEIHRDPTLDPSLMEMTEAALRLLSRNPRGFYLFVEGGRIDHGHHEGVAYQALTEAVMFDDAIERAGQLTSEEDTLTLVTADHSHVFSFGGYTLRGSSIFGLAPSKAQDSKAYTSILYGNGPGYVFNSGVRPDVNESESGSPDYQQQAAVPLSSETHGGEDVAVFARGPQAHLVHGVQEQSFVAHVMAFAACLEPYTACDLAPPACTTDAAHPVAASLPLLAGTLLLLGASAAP

[3] = biological target: Intestinal-type alkaline phosphatase (Mus musculus, UniProt P24822); assay: PubChem AID 488785; type: functional
Sequence of Intestinal-type alkaline phosphatase (Mus musculus, UniProt P24822) (P24822 whole entry): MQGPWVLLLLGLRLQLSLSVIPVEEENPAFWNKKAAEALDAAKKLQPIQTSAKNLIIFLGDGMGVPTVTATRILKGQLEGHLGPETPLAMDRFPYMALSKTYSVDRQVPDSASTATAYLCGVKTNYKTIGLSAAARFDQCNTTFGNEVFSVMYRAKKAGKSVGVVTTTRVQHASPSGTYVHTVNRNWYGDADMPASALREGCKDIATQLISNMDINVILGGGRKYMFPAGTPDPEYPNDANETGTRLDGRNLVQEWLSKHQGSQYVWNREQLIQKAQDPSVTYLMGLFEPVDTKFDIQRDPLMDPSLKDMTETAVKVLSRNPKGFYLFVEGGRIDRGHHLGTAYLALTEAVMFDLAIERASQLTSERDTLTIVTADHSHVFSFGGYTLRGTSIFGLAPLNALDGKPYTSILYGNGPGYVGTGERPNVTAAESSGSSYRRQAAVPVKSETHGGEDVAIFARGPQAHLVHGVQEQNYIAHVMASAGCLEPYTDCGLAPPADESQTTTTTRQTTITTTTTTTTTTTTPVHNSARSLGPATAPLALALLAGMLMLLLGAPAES

Beta-galactosidase = Beta-galactosidase (Escherichia coli, UniProt Q8VNN2); type: functional
Sequence of Beta-galactosidase (Q8VNN2 whole entry): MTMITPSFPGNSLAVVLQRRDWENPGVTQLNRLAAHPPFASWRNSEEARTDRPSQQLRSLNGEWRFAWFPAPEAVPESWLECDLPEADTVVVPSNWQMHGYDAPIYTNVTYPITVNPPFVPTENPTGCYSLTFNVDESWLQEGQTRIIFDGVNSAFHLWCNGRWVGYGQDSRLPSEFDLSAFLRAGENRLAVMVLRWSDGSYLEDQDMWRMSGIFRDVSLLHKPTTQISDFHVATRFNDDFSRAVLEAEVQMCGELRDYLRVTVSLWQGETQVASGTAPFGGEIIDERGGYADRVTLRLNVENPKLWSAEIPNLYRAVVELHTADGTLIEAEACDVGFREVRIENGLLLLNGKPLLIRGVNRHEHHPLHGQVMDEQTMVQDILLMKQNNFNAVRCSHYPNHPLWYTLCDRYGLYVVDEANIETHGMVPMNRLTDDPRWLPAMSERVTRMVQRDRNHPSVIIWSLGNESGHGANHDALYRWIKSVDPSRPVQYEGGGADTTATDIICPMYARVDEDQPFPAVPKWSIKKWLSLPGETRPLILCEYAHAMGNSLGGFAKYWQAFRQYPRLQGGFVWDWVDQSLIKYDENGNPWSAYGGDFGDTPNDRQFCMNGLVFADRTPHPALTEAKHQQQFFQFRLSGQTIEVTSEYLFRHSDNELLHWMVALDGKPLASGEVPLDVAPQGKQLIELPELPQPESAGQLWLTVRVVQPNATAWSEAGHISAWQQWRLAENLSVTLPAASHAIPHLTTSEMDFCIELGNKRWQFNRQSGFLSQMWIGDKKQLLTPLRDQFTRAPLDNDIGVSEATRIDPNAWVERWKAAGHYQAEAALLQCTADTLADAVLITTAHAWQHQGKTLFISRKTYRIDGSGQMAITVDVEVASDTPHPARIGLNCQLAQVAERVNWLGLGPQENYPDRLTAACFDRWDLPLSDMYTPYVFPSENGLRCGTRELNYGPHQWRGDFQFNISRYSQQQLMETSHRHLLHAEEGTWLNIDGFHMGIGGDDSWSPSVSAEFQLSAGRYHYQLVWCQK

[4] = biological target: T2, Kappa-type opioid receptor (Homo sapiens, UniProt P41145); type: functional
T2 sequence (P41145 whole entry): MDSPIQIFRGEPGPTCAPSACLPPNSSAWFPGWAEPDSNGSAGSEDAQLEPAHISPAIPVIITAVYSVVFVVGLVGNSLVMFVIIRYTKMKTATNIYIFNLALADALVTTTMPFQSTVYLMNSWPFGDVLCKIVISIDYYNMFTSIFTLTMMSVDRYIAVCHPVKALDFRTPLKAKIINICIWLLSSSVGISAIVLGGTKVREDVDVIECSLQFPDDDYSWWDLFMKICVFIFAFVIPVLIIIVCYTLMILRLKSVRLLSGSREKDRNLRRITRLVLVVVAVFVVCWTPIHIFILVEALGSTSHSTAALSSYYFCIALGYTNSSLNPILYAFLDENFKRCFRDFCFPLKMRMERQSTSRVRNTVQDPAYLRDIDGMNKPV

HeLa = assay: HeLa cell cytotoxicity, dose response, cytotoxicity control for MITF activator project, CellTiter-Glo luminescence, cherry-pick samples (AID 540259); type: functional, cell-based; details: Homo sapiens
[5] = biological target: T2, Kappa-type opioid receptor; type: functional; remark: listed apart in the source
[6] = HeLa cell cytotoxicity, dose response, cytotoxicity control for MgcRacGAP inhibitor project (AID 624300); type: functional
[7] = biological target: T3, Rac GTPase-activating protein 1 (Homo sapiens, UniProt Q9H0H5); assay: MgcRacGAP GTPase-activating activity inhibitors, confirmation, biochemical, ADP Hunter fluorescence, primary and confirmatory (AID 624330); type: functional
T3 sequence (Q9H0H5 whole entry): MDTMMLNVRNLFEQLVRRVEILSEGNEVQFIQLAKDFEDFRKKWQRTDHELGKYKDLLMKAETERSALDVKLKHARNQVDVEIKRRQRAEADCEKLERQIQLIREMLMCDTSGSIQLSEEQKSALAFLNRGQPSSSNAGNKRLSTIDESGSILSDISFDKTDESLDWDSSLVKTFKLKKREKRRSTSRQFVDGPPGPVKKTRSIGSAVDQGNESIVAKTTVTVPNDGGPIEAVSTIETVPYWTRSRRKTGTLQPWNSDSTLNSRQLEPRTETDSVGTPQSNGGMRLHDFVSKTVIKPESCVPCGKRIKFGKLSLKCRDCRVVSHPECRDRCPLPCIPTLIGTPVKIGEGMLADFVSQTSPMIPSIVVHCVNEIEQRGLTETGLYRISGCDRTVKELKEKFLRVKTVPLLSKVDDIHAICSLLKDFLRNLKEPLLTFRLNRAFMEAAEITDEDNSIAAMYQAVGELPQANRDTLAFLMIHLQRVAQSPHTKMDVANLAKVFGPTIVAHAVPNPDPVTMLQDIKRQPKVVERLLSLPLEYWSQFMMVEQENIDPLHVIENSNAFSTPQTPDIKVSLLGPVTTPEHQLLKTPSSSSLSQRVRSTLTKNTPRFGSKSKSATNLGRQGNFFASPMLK

Wee1-like protein kinase = Wee1-like protein kinase (Homo sapiens, UniProt P30291); assay: G2/M cell cycle arrest in HeLa, late-stage follow-up, mechanism study for Wee1 degradation inhibitor project, FACS, panel member Wee1 Degradation (AID 2088)
Sequence of Wee1-like protein kinase (P30291 whole entry): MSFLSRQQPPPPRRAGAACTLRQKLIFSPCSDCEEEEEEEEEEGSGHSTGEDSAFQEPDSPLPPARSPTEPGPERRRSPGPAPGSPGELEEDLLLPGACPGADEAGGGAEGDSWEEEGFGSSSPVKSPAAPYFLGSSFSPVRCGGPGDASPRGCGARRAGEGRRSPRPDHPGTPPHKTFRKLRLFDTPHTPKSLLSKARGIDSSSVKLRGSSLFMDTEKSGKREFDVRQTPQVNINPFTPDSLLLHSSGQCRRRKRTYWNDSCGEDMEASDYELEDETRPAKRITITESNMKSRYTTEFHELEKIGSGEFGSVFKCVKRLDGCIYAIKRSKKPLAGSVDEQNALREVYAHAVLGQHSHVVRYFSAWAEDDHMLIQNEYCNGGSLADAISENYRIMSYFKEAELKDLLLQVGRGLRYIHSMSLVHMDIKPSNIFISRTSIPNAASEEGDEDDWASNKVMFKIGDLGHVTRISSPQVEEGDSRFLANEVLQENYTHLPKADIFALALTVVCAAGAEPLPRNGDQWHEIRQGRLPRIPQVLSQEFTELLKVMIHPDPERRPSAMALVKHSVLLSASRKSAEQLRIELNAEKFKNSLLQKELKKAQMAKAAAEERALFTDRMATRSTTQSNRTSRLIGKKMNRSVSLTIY

[8] = biological target: G2/mitotic-specific cyclin-B1 (Homo sapiens, UniProt P14635); assay: G2/M cell cycle arrest in HeLa, late-stage follow-up, mechanism study for Wee1 degradation inhibitor project, FACS, panel member Cyclin B Degradation (AID 2088)
Sequence of G2/mitotic-specific cyclin-B1 (P14635 whole entry): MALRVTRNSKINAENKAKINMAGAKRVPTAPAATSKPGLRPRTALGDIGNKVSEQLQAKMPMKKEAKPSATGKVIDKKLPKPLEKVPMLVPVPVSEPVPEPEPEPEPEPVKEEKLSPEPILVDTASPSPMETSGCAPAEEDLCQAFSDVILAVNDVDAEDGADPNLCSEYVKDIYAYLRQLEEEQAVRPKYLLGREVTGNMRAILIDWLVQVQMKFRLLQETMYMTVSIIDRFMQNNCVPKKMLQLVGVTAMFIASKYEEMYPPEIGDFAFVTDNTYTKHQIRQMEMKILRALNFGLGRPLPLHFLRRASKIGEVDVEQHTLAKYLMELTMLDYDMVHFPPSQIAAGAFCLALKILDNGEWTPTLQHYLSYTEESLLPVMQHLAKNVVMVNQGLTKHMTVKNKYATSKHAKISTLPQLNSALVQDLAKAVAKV

[9] = THP-1 cell cytotoxicity, dose response, cytotoxicity control for Vif-APOBEC3G degradation inhibitor project, THP-1 cells (AID 1117359); type: functional; details: Human immunodeficiency virus 1, THP-1
Hexokinase HKDC1 = biological target: T4, Hexokinase HKDC1 (Homo sapiens, UniProt Q2TB90); assay: HKDC1 hexokinase activators, dose response, biochemical, W721R variant (AID 504730); type: functional
T4 sequence (Q2TB90 whole entry): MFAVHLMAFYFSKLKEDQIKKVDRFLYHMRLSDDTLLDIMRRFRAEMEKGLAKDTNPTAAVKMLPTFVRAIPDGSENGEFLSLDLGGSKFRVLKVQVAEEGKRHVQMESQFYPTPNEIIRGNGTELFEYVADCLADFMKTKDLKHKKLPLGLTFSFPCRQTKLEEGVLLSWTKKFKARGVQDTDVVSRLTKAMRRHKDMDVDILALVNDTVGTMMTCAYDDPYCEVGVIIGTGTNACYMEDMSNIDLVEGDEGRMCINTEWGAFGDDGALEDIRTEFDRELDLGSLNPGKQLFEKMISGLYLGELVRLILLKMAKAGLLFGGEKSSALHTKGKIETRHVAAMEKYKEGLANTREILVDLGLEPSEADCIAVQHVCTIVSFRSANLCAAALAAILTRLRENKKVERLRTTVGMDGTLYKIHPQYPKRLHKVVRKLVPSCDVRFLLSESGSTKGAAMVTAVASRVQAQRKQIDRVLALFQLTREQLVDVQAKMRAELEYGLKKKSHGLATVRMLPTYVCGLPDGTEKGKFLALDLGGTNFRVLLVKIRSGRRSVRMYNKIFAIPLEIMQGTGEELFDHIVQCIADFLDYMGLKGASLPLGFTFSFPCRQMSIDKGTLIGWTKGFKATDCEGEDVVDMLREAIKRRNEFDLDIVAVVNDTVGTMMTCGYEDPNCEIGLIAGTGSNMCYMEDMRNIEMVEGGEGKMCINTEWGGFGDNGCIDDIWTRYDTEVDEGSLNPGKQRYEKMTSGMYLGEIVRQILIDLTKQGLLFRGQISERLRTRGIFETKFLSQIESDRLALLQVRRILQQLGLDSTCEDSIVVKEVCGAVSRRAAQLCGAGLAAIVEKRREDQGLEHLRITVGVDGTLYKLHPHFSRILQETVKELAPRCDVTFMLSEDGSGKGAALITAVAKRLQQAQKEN

Hexokinase-1 = Hexokinase-1 (Homo sapiens, UniProt P19367); assay: hexokinase 1 activators, dose response, selectivity assay for HKDC1 activator project, biochemical (AID 504762); type: functional
Sequence of Hexokinase-1 (P19367 whole entry): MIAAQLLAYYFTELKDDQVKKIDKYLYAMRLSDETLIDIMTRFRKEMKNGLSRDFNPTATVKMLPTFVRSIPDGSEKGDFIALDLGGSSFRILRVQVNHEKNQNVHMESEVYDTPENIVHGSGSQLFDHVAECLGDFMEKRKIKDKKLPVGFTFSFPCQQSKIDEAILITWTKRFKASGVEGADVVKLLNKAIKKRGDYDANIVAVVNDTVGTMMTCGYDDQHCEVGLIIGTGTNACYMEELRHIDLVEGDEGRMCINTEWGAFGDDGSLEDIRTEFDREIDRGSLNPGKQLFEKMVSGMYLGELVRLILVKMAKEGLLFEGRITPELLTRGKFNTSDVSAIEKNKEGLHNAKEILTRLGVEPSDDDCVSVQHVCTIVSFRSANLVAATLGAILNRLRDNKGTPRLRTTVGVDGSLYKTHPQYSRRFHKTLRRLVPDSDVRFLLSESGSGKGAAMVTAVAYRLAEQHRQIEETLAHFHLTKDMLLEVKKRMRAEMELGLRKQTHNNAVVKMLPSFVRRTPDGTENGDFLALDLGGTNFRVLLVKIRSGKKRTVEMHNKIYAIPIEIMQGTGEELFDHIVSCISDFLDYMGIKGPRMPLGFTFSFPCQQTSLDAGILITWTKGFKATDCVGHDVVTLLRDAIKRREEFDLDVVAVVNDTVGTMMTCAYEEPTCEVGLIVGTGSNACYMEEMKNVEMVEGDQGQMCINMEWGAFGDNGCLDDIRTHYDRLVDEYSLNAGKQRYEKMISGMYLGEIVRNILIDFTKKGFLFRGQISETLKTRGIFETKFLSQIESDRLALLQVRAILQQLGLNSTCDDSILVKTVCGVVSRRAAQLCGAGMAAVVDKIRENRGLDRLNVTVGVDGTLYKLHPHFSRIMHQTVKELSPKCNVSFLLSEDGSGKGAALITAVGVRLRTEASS

Nonstructural protein 1 = Nonstructural protein 1 (Influenza A virus, UniProt Q194T2); type: functional, Influenza A virus (A/California/07/2009(H1N1))
Sequence of Nonstructural protein 1 (Q194T2 whole entry): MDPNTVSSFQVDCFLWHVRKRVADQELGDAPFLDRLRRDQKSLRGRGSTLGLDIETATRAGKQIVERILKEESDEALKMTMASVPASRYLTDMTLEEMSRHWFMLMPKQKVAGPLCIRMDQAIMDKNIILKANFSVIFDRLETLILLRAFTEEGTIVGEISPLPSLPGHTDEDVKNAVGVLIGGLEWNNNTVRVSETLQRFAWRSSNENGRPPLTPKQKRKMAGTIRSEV

[10] = blockers of SFLLRN-triggered platelet ATP secretion – cell-based, human platelets, luminescence, dry powder, dose response (AID 493100); type: functional
[11] = biological target: DNA damage-inducible transcript 3 protein (Mus musculus, UniProt P35639); type: functional, Cricetulus griseus
Sequence of DNA damage-inducible transcript 3 protein (P35639 whole entry): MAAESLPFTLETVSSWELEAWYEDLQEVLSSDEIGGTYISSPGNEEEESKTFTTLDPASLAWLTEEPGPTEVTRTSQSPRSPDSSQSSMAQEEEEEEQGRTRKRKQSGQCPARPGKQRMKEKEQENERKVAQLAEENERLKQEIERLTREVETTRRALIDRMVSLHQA

Which CC50 (Vero) does the source give for `Cc1c(CN2CCC(C(=O)Nc3cccc(-c4cccc(Cl)c4)c3)CC2)cnn1C` here?
Its CC50 is 16.1 µM (active).

And the IC50 [1]?
The IC50 was > 100 µM (inactive).

What about the EC50 [2] of the same compound?
Its EC50 is 37.2 µM (active).

And the IC50 [3]?
The IC50 was 4.27 µM (active).

What does the source list for `COc1cc(/C=C2\SC(=S)N(Nc3ccccc3)C2=O)ccc1O`?
EC50 (Beta-galactosidase): 9.67 µM (active); IC50 [4]: > 32 µM; AC50 (HeLa): 41 µM (active); IC50 [5]: 8.41 µM (active); CC50 [6]: 100 µM (active); IC50 [7]: 55.7 µM (active)

With `c1cc2[nH]c3c(c2c2nonc12)CCCC3` as the compound, how does the EC50 (Wee1-like protein kinase) read?
The EC50 was > 49.7 µM (inactive).

And the EC50 [8]?
Its EC50 is > 49.7 µM (inactive).

For `CC(=NNC(=S)SCc1ccccc1)c1ccccn1`, which CC50 [9] is on record?
The CC50 was < 80 nM (active).

And the EC50 (Hexokinase HKDC1)?
Its EC50 is 1.61 µM (active).

What about the EC50 (Hexokinase-1) of the same compound?
The EC50 was > 80 µM (inactive).

And the IC50 (Nonstructural protein 1)?
Its IC50 is 12.2 µM (active).

Which AC50 [10] does the source give for `CCCC(=O)Nc1cccc(NC(=O)c2ccccc2Cl)c1` here?
The AC50 was 6.09 µM (active).

Which “Absolute IC50 (CHOP)” value [11] does the source give for `COC(=O)Oc1ccc(/C=N/NC(=O)CSCc2ccccc2Br)cc1OC` here?
Its value is 10 µM.
